Holding throughout (assay type): cell-based
Experiment [1] concerns T47D cells. Nature of the experiment: Anti-proliferation (viability) of ER+ breast cancer T47D cells, 6 days (Table 7, FIG. 2B). Particulars: Homo sapiens, 144 h; T47D cells, 6 days, 10-point serial dilution; read-out: GI IC50 in T47D. The procedure:
To evaluate anti-proliferation activities of heterobifunctional compounds, NSCLC Calu-1 or ER+ breast cancer T47D cells were treated with selected heterobifunctional compounds following a 10-point serial dilution for 3 or 6 days, respectively.
To verify that heterobifunctional compound-mediated degradation is dependent on the binding to CDK4-cyclin D complex, a negative control compound, CPD-143, which is derived from active heterobifunctional compound CPD-10 was designed. CPD-143 bears the same DDB1 ligand and linker as CPD-10 but with a modified warhead to impair the binding of the control compound to CDK4.

In experiment [2] the target is T1, CDK4 (Homo sapiens, UniProt P11802+Q16531). Nature of the experiment: CDK4 percentage degradation in Calu-1 cells (Table 6). Further details: Cells that express cyclin D1-3 and CDK4/6 proteins were treated with heterobifunctional compounds; endogenous in cells; host or cells: Calu-1. As to conditions: 16 hours; for inhibition at 0.04 µM: 40 nM; for inhibition at 0.2 µM: 200 nM. Summed up:
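Calu-1 cells exposed to heterobifunctional compounds at 40 nM or 200 nM for 16 h. Cyclin D1 and CDK4 levels measured by Western blot of RIPA lysates (BCA-normalised loading), bands quantified by densitometry and expressed as percentage degradation.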
Target sequence in this assay (P11802 2-303 limits assumed): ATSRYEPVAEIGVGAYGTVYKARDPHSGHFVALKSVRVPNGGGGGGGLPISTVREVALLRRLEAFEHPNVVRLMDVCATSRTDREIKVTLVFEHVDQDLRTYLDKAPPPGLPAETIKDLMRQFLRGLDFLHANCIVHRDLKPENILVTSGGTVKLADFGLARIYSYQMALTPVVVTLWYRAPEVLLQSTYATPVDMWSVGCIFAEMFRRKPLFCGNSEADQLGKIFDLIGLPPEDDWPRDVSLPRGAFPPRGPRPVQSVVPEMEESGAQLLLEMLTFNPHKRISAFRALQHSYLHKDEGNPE
Target sequence in this assay (P24385 whole entry partner): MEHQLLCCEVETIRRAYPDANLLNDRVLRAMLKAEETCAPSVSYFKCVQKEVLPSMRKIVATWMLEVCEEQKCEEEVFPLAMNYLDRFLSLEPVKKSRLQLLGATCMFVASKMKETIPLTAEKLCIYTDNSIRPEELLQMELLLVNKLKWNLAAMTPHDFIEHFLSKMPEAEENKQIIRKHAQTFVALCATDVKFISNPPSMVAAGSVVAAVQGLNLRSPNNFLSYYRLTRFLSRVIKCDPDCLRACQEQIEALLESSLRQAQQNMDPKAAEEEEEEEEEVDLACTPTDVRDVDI
Target sequence in this assay (Q16531 2-1140 limits assumed): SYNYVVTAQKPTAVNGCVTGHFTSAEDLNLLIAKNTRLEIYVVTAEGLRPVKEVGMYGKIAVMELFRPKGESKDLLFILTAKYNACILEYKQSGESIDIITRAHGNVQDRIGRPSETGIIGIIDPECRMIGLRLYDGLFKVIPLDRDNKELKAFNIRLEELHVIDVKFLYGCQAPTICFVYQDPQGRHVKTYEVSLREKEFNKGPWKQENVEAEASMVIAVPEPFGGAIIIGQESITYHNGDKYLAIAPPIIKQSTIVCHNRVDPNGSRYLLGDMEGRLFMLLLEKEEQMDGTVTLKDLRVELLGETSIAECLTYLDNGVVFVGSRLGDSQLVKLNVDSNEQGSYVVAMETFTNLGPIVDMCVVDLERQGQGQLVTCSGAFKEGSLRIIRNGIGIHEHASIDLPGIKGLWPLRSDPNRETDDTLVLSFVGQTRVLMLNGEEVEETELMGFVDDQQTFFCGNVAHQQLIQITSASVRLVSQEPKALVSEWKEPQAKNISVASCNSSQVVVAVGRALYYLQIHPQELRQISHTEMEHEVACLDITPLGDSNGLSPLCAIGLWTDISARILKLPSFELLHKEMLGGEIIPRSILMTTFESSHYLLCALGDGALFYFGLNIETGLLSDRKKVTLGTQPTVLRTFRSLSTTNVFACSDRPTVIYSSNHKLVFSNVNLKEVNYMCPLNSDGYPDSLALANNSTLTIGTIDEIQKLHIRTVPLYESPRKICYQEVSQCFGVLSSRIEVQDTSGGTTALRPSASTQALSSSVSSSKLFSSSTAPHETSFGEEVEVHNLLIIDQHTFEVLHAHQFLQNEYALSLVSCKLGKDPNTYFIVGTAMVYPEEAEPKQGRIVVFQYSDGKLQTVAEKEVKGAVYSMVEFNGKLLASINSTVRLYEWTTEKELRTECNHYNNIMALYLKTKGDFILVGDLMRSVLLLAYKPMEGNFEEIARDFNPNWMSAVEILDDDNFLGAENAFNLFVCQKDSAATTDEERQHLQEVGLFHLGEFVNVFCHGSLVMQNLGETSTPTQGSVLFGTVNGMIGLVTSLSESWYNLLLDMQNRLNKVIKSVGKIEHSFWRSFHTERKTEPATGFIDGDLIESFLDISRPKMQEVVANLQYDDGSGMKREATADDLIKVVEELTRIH

Experiment [3] concerns Calu-1 cells. Nature of the experiment: Anti-proliferation (viability) of NSCLC Calu-1 cells, 3 days (Table 7, FIG. 2B). As to conditions: Homo sapiens, 72 h; Calu-1 cells, 3 days, 10-point serial dilution; read-out: GI IC50 in Calu-1. In a few lines:
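Viability is read after treatment with compounds titrated over ten serial dilution points, with exposure lasting three days for the NSCLC line and six days for the breast cancer line.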

The subject of experiment [4] is MCF7 cells. Nature of the experiment: Anti-proliferation (viability) of MCF7 cells (Table 7, FIG. 2B). As to conditions: Homo sapiens, MCF7, MCF7 cells, 3-6 days, 10-point serial dilution; read-out: GI IC50 in MCF-7.
Experiment [5] has as its target T1, CDK4. Nature of the experiment: HiBiT detection of HiBiT-tagged CDK4 protein level in MCF7 cells, 16 hours (Table 8). Further details: expressed in transfected cells; host or cells: MCF7. As to conditions: MCF7 cells stably expressing HiBiT tagged target proteins; for activity at 0.01 µM: 10 nM, read-out: % CDK4 Relative Level (10 nM); for activity at 0.1 µM: 100 nM, read-out: % CDK4 Relative Level (100 nM). The procedure: HiBiT detection system quantitatively measures total amounts of HiBiT-tagged proteins using a luminescent based method. MCF7 cells stably expressing HiBiT tagged target proteins were treated with heterobifunctional compounds at indicated concentrations for 16 hours, then lysed with Nano-Glo HiBiT Lytic detection reagents.
Target sequence in this assay (P11802 whole entry): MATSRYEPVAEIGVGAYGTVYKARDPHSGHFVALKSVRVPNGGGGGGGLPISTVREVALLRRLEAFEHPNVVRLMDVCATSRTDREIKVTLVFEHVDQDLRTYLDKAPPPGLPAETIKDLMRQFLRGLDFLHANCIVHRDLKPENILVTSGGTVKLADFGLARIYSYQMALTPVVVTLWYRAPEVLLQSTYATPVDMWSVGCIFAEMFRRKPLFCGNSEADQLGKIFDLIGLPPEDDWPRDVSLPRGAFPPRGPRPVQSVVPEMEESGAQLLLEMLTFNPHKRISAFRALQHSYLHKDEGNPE
Target sequence in this assay (P24385 whole entry partner): as the sequence (P24385 whole entry partner) above
Target sequence in this assay (Q16531 2-1140 limits assumed): as the sequence (Q16531 2-1140 limits assumed) above
(In general: With HiBiT, luminescence reflects the tagged protein that the partner subunit can reach.)

The structures appear in SMILES notation. pIC50: −log10 of the molar value.

`CC(=O)c1c(C)c2cnc(Nc3ccc(N4CCN(CC(=O)NCC5CC(Nc6nc(C)ccc6C(=O)Nc6cc(C)n(C)n6)C5)CC4)cn3)nc2n(C2CCCC2)c1=O` (stereo not shown) [CPD-209, 2-((3-((2-(4-(6-((6-acetyl-8-cyclopentyl-5-methyl-7-oxo-7,8-dihydropyrido[2,3-d]pyrimidin-2-yl)amino)pyridin-3-yl)piperazin-1-yl)acetamido)methyl)cyclobutyl)amino)-N-(1,5-dimethyl-1H-pyrazol-3-yl)-6-methylnicotinamide]: in experiment [1], the pIC50 was not above 7.00. In experiment [2], this compound showed an inhibition at 0.04 µM of 30 to 50% and an inhibition at 0.2 µM of 50 to 80%.
On to `[2H]C([2H])([2H])Nc1ccc(C(=O)Nc2cccc(C3CC3)n2)c(NC2CCN(C(=O)CN3CCN(c4ccc(Nc5ncc6c(C)c(C(C)=O)c(=O)n(C7CCCC7)c6n5)nc4)CC3)CC2)n1` [CPD-252, 2-((1-(2-(4-(6-((6-acetyl-8-cyclopentyl-5-methyl-7-oxo-7,8-dihydropyrido[2,3-d]pyrimidin-2-yl)amino)pyridin-3-yl)piperazin-1-yl)acetyl)piperidin-4-yl)amino)-N-(6-cyclopropylpyridin-2-yl)-6-((methyl-d3)amino)nicotinamide], for which, in experiment [1], the pIC50 was not above 7.00.
For `CC(=O)c1c(C)c2cnc(Nc3ccc(N4CCN(CC(=O)NCC5CC(Nc6c(F)cccc6C(=O)Nc6cc(C)n(C)n6)C5)CC4)cn3)nc2n(C2CCCC2)c1=O` (stereo not shown) [CPD-265, 2-((3-((2-(4-(6-((6-acetyl-8-cyclopentyl-5-methyl-7-oxo-7,8-dihydropyrido[2,3-d]pyrimidin-2-yl)amino)pyridin-3-yl)piperazin-1-yl)acetamido)methyl)cyclobutyl)amino)-N-(1,5-dimethyl-1H-pyrazol-3-yl)-3-fluorobenzamide], in experiment [1], the pIC50 is not above 7.00.
As to `CC(=O)c1c(C)c2cnc(Nc3ccc(N4CCN(CC(=O)NCC5CC(Nc6c(C(=O)Nc7cc(C)n(C)n7)cccc6C(F)(F)F)C5)CC4)cn3)nc2n(C2CCCC2)c1=O` (stereo not shown) [CPD-266, 2-((3-((2-(4-(6-((6-acetyl-8-cyclopentyl-5-methyl-7-oxo-7,8-dihydropyrido[2,3-d]pyrimidin-2-yl)amino)pyridin-3-yl)piperazin-1-yl)acetamido)methyl)cyclobutyl)amino)-N-(1,5-dimethyl-1H-pyrazol-3-yl)-3-(trifluoromethyl)benzamide], the pIC50 in experiment [1] was not above 7.00.
For `CC(=O)c1c(C)c2cnc(Nc3ccc(N4CCN(CC(=O)NCC5CC(Nc6nc(NC(C)C)ccc6C(=O)Nc6cc(C)on6)C5)CC4)cn3)nc2n(C2CCCC2)c1=O` (stereo not shown) [CPD-282, 2-((3-((2-(4-(6-((6-acetyl-8-cyclopentyl-5-methyl-7-oxo-7,8-dihydropyrido[2,3-d]pyrimidin-2-yl)amino)pyridin-3-yl)piperazin-1-yl)acetamido)methyl)cyclobutyl)amino)-6-(isopropylamino)-N-(5-methylisoxazol-3-yl)nicotinamide], in experiment [3], the pIC50 was not below 8.00. For the same compound, in experiment [4], the pIC50 was more than 7.30. Further, in experiment [5], the activity at 0.01 µM fell in the range of 55 to 85% and the activity at 0.1 µM is 55 to 85%. In experiment [2], this compound registered an inhibition at 0.04 µM of less than 30% and an inhibition at 0.2 µM of less than 30%.
For the compound `CC(=O)c1c(C)c2cnc(Nc3ccc(CN4CCN(C(C)C(=O)N5CCC6(CCC(Nc7nc(NC(C)C)ccc7C(=O)Nc7ccc(N(C)C)nn7)C6)C5)CC4)cn3)nc2n(C2CCCC2)c1=O` (stereo not shown) [CPD-550, 2-((2-(2-(4-((6-((6-acetyl-8-cyclopentyl-5-methyl-7-oxo-7,8-dihydropyrido[2,3-d]pyrimidin-2-yl)amino)pyridin-3-yl)methyl)piperazin-1-yl)propanoyl)-2-azaspiro[4.4]nonan-7-yl)amino)-N-(6-(dimethylamino)pyridazin-3-yl)-6-(isopropylamino)nicotinamide], the pIC50 in experiment [3] is not below 8.00. Also, the pIC50 in experiment [4] is more than 7.30. Moreover, in experiment [5], the activity at 0.01 µM is more than 85% and the activity at 0.1 µM is more than 85%.
For the compound `CC(=O)c1c(C)c2cnc(Nc3ccc(C(C)N4CCN(CC(=O)N5CCC6(CCC(Nc7nc(NC(C)C)ccc7C(=O)Nc7ccc(N(C)C)nn7)C6)C5)CC4)cn3)nc2n(C2CCCC2)c1=O` (stereo not shown) [CPD-551, 2-((2-(2-(4-(1-(6-((6-acetyl-8-cyclopentyl-5-methyl-7-oxo-7,8-dihydropyrido[2,3-d]pyrimidin-2-yl)amino)pyridin-3-yl)ethyl)piperazin-1-yl)acetyl)-2-azaspiro[4.4]nonan-7-yl)amino)-N-(6-(dimethylamino)pyridazin-3-yl)-6-(isopropylamino)nicotinamide], the pIC50 in experiment [3] was not below 8.00. For the same compound, the pIC50 in experiment [4] was more than 7.30. Further, in experiment [5], the activity at 0.01 µM is more than 85% and the activity at 0.1 µM lay in the range of 55 to 85%.
As for `CC(=O)c1c(C)c2cnc(Nc3ccc(N4CCC5(CCN(CC(=O)N6CC7(CC(Nc8nc(NC(C)C)ccc8C(=O)Nc8cn9c(n8)CCC9)C7)C6)C5)C4)cn3)nc2n(C2CCCC2)c1=O` (stereo not shown) [CPD-565, 2-((2-(2-(7-(6-((6-acetyl-8-cyclopentyl-5-methyl-7-oxo-7,8-dihydropyrido[2,3-d]pyrimidin-2-yl)amino)pyridin-3-yl)-2,7-diazaspiro[4.4]nonan-2-yl)acetyl)-2-azaspiro[3.3]heptan-6-yl)amino)-N-(6,7-dihydro-5H-pyrrolo[1,2-a]imidazol-2-yl)-6-(isopropylamino)nicotinamide], the pIC50 in experiment [3] was not below 8.00. In addition, the pIC50 in experiment [4] was more than 7.30. For the same compound, in experiment [5], the activity at 0.01 µM was more than 85% and the activity at 0.1 µM lay within 55 to 85%.
Take `CC(=O)c1c(C)c2cnc(Nc3ccc(CN4CCN(CC(=O)N5CCC6(CC(Nc7nc(NC(C)C)ccc7C(=O)Nc7ccc(N(C)C)nn7)C6)C5)CC4)cn3)nc2n(C2CCCC2)c1=O` (stereo not shown) [CPD-570, 2-((6-(2-(4-((6-((6-acetyl-8-cyclopentyl-5-methyl-7-oxo-7,8-dihydropyrido[2,3-d]pyrimidin-2-yl)amino)pyridin-3-yl)methyl)piperazin-1-yl)acetyl)-6-azaspiro[3.4]octan-2-yl)amino)-N-(6-(dimethylamino)pyridazin-3-yl)-6-(isopropylamino)nicotinamide]: the pIC50 in experiment [3] was not below 8.00. Also, the pIC50 in experiment [4] is more than 7.30. In experiment [5], the activity at 0.01 µM is more than 85% and the activity at 0.1 µM lay in the range of 55 to 85%.
As for `CC(=O)c1c(C)c2cnc(Nc3ccc(CN4CCN(CC(=O)NC5CC6(C5)CC(Nc5nc(NC(C)C)ccc5C(=O)Nc5cn(C)c(C7CC7)n5)C6)CC4)cn3)nc2n(C2CCCC2)c1=O` (stereo not shown) [CPD-589, 2-((6-(2-(4-((6-((6-acetyl-8-cyclopentyl-5-methyl-7-oxo-7,8-dihydropyrido[2,3-d]pyrimidin-2-yl)amino)pyridin-3-yl)methyl)piperazin-1-yl)acetamido)spiro[3.3]heptan-2-yl)amino)-N-(2-cyclopropyl-1-methyl-1H-imidazol-4-yl)-6-(isopropylamino)nicotinamide], the pIC50 in experiment [3] is not below 8.00. For the same compound, the pIC50 in experiment [4] is more than 7.30. For the same compound, in experiment [5], the activity at 0.01 µM is 55 to 85% and the activity at 0.1 µM lay in the range of 55 to 85%.
As to `CC(=O)c1c(C)c2cnc(Nc3ccc(N4CCN(C5CCN(C(=O)C67CC(Nc8nc(NC(C)C)ccc8C(=O)Nc8cc9n(n8)CCC9)(C6)C7)C5)CC4)cn3)nc2n(C2CCCC2)c1=O` (stereo not shown) [CPD-592, 2-((3-(3-(4-(6-((6-acetyl-8-cyclopentyl-5-methyl-7-oxo-7,8-dihydropyrido[2,3-d]pyrimidin-2-yl)amino)pyridin-3-yl)piperazin-1-yl)pyrrolidine-1-carbonyl)bicyclo[1.1.1]pentan-1-yl)amino)-N-(5,6-dihydro-4H-pyrrolo[1,2-b]pyrazol-2-yl)-6-(isopropylamino)nicotinamide], the pIC50 in experiment [3] is not below 8.00. In addition, the negative-log IC50 (pIC50) in experiment [4] was more than 7.30. Besides, in experiment [5], the activity at 0.01 µM was 55 to 85% and the activity at 0.1 µM is 55 to 85%.
Turning to `CNc1ccc(C(=O)Nc2ccc(N(C)C)nn2)c(NCCC(=O)N2CCN(c3ccc(Nc4ncc5cc(C(=O)N(C)C)n(C6CCCC6)c5n4)nc3)CC2)n1` [CPD-616, 7-cyclopentyl-2-((5-(4-(3-((3-((6-(dimethylamino)pyridazin-3-yl)carbamoyl)-6-(methylamino)pyridin-2-yl)amino)propanoyl)piperazin-1-yl)pyridin-2-yl)amino)-N,N-dimethyl-7H-pyrrolo[2,3-d]pyrimidine-6-carboxamide], the pIC50 in experiment [3] was not above 7.30. Moreover, the pIC50 in experiment [4] is less than 7.00. In addition, in experiment [5], the activity at 0.01 µM is more than 85% and the activity at 0.1 µM is more than 85%.

As a reminder, the pIC50 is the IC50 on a negative log10 scale, so that one unit is a factor of ten. In general, inhibition refers to the drop in the measured response relative to a control, in per cent. Read a low inhibition as a response near the control.

Values taken from US20260297081A1, “COMPOUNDS AND METHODS OF TREATING CANCERS” (Cullgen Inc., priority 2023, published 2026).
